A short description of this series: Effectiveness and irritation of lower octenidine concentration in gel formulation (statement in description). The settings on record: concentration of 0.05% octenidine, compared with common 0.1%.

SMILES strings stand for the structures.

Consider `CCCCCCCCN=c1ccn(CCCCCCCCCCn2ccc(=NCCCCCCCC)cc2)cc1` [octenidine, 1,1′-(1.1 O-decandiyl) to [4-(octylamino)pyridinium]-dichloride], for which the effectiveness result is “sufficiently good effectiveness” and the irritation result is recorded as “lower irritation”.

The record behind these values is patent publication US20140370067A1, “Method and applicator for the perioperative disinfection of medical instruments to be inserted through non-natural openings” (priority 2012, published 2014).
